{"source": "patent US11459546B2", "about": "“Method for producing somatic cell, somatic cell, and composition” (Kyoto Prefectural Public University Corporation, priority 2016, dated 2022)", "test_system": "Human skin fibroblasts", "assay": "Direct transformation from human fibroblast to brown adipocyte (Example B)", "type": "cell-based", "parameters": "key: the mark “++++” indicates that almost all of the fibroblasts were transformed into brown adipocytes; +++: the larger the number of the marks “+” is, the higher the transformation efficiency is; ++: the larger the number of the marks “+” is, the higher the transformation efficiency is; the larger the number of the marks “+” is, the higher the transformation efficiency is; The mark “−” indicates that the fibroblasts were not transformed into brown adipocytes", "settings": "fibroblast of subject; judged from UCP1 immunostaining and cell states, FIG. 4 to FIG. 8", "procedure": "Human skin fibroblasts were purchased from DS Pharma Biomedical Co., Ltd. Cell information is described in the following table.\nAbout 1.5×10^5 cells were seeded on a 35 mm dish containing a high-glucose DMEM medium (11995-065, Gibco, MA, USA) to which 10% fetal bovine serum (FBS) (HyClone, Utah, USA) and penicillin/streptomycin (Gibco) were added.\nAfter each of the human fibroblasts reached 80-90% confluence, the medium was changed to start direct transformation into the brown adipocyte. The adipocyte medium for use was prepared by adding an additive reagent containing ascorbic acid, biotin, pantothenic acid, triiodothyronine, octanoic acid, insulin, dexamethasone, IBLMX (3-isobutyl-1-methylxanthine), FBS and penicillin/streptomycin (MK425, Takara Bio Inc.) to a high-glucose DMEM medium (043-30085, Wako Pure Chemical Industries, Ltd.). […]\nImmunocytochemistry was performed in accordance with a previous report (Dai P, et al. J Clin Biochem Nutr. 2015; 56 (3): 166-70). […] All images were acquired using a fluorescence microscope (Axio Vert. A1, Carl Zeiss, Oberkochen, Germany). […]\nThe efficiencies of transformation into the adipocyte-like cells with various combinations of the compounds were evaluated from the results shown in FIG. 4 to FIG. 8, and the results are shown in the following table. […]", "data": [{"smiles": "CN(CCOc1ccc(CC2SC(=O)NC2=O)cc1)c1ccccn1", "note": "(stereo not shown) [Ro only, Rosiglitazone]", "values": [{"measurement": "Efficiency (transformation into the adipocyte-like cells)", "value": "−"}]}]}
